# Assay results from ChEMBL document CHEMBL4417633, “Inhibitory polypeptides specific to WNT inhibitors” (2017).
# The source made the active and inactive calls. The calls are words filed in the database; no cut-off is given here. Where a SMILES comes first, the peptide text is derived from it.
# Legend:
# [1] = molecular target: T1, Dickkopf-related protein 1 (Homo sapiens) (UniProt O94907); assay: Inhibition of biotin-labeled human recombinant DKK1 assessed as reduction in DKK1 interaction with LRP-6/Fc incubated overnight by chemiluminescence based Alpha-screen assay
# T1 sequence (whole entry): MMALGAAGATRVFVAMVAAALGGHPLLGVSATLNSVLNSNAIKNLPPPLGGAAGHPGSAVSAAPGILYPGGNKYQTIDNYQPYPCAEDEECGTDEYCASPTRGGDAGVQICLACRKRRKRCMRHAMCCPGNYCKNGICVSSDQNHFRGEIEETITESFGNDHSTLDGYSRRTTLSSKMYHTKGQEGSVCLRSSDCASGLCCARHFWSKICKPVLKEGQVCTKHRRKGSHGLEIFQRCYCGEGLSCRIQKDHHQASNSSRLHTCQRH
# [2] = molecular target: T2, Dickkopf-related protein 1 (Homo sapiens, UniProt O94907); assay: Inhibition of human DKK1 in MC3T3E1/TetON-Wnt1/STF-Luc#5 cells assessed as DKK1 neutralizing activity by Wnt1-induced TCF/LEF luciferase reporter gene assay
# T2 sequence (O94907 whole entry): T1 sequence (whole entry)
# [3] = molecular target: T3, Dickkopf WNT-signaling pathway inhibitor 1 (Rattus norvegicus) (UniProt A6I0Z0); assay: Inhibition of biotin-labeled rat recombinant DKK1 assessed as reduction in DKK1 interaction with LRP-6/Fc incubated overnight by chemiluminescence based Alpha-screen assay
# T3 sequence (whole entry): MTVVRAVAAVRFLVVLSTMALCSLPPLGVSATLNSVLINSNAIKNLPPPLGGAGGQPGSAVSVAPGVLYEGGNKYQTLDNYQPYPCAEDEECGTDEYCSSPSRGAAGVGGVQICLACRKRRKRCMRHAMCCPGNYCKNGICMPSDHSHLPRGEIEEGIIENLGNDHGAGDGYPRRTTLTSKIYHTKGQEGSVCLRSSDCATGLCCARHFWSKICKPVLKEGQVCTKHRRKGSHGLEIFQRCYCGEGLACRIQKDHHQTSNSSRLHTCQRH
inhibition [1],IC50 [2] [nM],inhibition [3],SMILES
Active,0.8 to 3,Active,CC[C@H](C)[C@H](NC(=O)[C@H](CS)NC(=O)[C@H](CC(=O)O)NC(=O)[C@@H]1CCCN1C(=O)[C@H](Cc1ccccc1)NC(=O)CNC(=O)[C@H](CC(=O)O)NC(=O)[C@H](CS)NC(=O)[C@H](CCCNC(=N)N)NC(=O)[C@H](Cc1c[nH]c2ccccc12)NC(=O)[C@H](CCC(=O)O)NC(=O)[C@H](CCSC)NC(=O)[C@@H]1CCCN1C(=O)[C@H](Cc1ccc(O)cc1)NC(=O)[C@H](CS)NC(=O)[C@H](Cc1cnc[nH]1)NC(=O)[C@@H]1CCCN1C(=O)[C@H](Cc1cnc[nH]1)NC(=O)[C@H](CC(N)=O)NC(=O)[C@H](CCCNC(=N)N)NC(=O)[C@H](CS)NC(=O)[C@H](CCC(N)=O)NC(=O)[C@H](Cc1ccccc1)NC(=O)[C@H](Cc1ccc(O)cc1)NC(=O)[C@H](CO)NC(=O)[C@@H](NC(=O)[C@@H]1CCCN1C(=O)[C@@H](N)CS)C(C)C)C(=O)N[C@@H](CC(=O)O)C(=O)NCC(=O)N[C@@H](CO)C(=O)N[C@@H](CC(=O)O)C(=O)N[C@@H](CCC(=O)O)C(=O)N[C@@H](CCC(=O)O)C(=O)NCC(=O)N[C@@H](CS)C(=O)NCC(=O)NCC(=O)NCC(=O)NCC(=O)O (H-CPVSYFQCRNHPHCYPMEWRCDGFPDCIDGSDEEGCGGGG-OH)
Active,0.8 to 3,Active,CSCC[C@H](NC(=O)[C@@H]1CCCN1C(=O)[C@H](Cc1cnc[nH]1)NC(=O)[C@H](CS)NC(=O)[C@@H]1CCCN1C(=O)[C@@H]1CCCN1C(=O)[C@H](CC(=O)O)NC(=O)[C@H](CC(N)=O)NC(=O)[C@H](CCCNC(=N)N)NC(=O)[C@H](CS)NC(=O)[C@H](CCC(N)=O)NC(=O)[C@H](Cc1ccccc1)NC(=O)[C@H](Cc1ccc(O)cc1)NC(=O)[C@@H]1CCCN1C(=O)[C@H](C)NC(=O)[C@@H]1CCCN1C(=O)[C@@H](N)CS)C(=O)N[C@@H](CC(=O)O)C(=O)N[C@@H](Cc1c[nH]c2ccccc12)C(=O)N[C@@H](CCCNC(=N)N)C(=O)N[C@@H](CS)C(=O)N[C@@H](CC(=O)O)C(=O)NCC(=O)N[C@@H](Cc1ccccc1)C(=O)N1CCC[C@H]1C(=O)N[C@@H](CC(=O)O)C(=O)N[C@@H](CS)C(=O)N[C@H](C(=O)N[C@@H](CC(=O)O)C(=O)NCC(=O)N[C@@H](CO)C(=O)N[C@@H](CC(=O)O)C(=O)N[C@@H](CCC(=O)O)C(=O)N[C@@H](CCCCN)C(=O)NCC(=O)N[C@@H](CS)C(=O)NCC(=O)NCC(=O)NCC(=O)NCC(=O)O)C(C)C (H-CPAPYFQCRNDPPCHPMDWRCDGFPDCVDGSDEKGCGGGG-OH)
Active,0.8 to 3,Active,CSCC[C@H](NC(=O)[C@@H]1CCCN1C(=O)[C@H](Cc1ccc(O)cc1)NC(=O)[C@H](CS)NC(=O)[C@H](Cc1cnc[nH]1)NC(=O)[C@@H]1CCCN1C(=O)[C@H](Cc1cnc[nH]1)NC(=O)[C@H](CC(N)=O)NC(=O)[C@H](CCCNC(=N)N)NC(=O)[C@H](CS)NC(=O)[C@H](CCC(N)=O)NC(=O)[C@H](Cc1ccccc1)NC(=O)[C@H](Cc1ccc(O)cc1)NC(=O)[C@H](CO)NC(=O)[C@@H](NC(=O)[C@@H]1CCCN1C(=O)[C@@H](N)CS)C(C)C)C(=O)N[C@@H](CCC(=O)O)C(=O)N[C@@H](Cc1c[nH]c2ccccc12)C(=O)N[C@@H](CCCNC(=N)N)C(=O)N[C@@H](CS)C(=O)N[C@@H](CC(=O)O)C(=O)NCC(=O)N[C@@H](Cc1ccccc1)C(=O)N1CCC[C@H]1C(=O)N[C@@H](CC(=O)O)C(=O)N[C@@H](CS)C(=O)N[C@@H](CC(C)C)C(=O)N[C@@H](CC(=O)O)C(=O)N[C@@H](CCC(=O)O)C(=O)N[C@@H](CO)C(=O)N[C@@H](CC(=O)O)C(=O)N[C@@H](CCC(=O)O)C(=O)N[C@@H](CCCCN)C(=O)NCC(=O)N[C@@H](CS)C(=O)NCC(=O)NCC(=O)NCC(=O)NCC(=O)O (H-CPVSYFQCRNHPHCYPMEWRCDGFPDCLDESDEKGCGGGG-OH)
Active,0.8 to 3,Active,CC[C@H](C)[C@H](NC(=O)[C@H](CS)NC(=O)[C@H](CC(=O)O)NC(=O)[C@@H]1CCCN1C(=O)[C@H](Cc1ccccc1)NC(=O)CNC(=O)[C@H](CC(=O)O)NC(=O)[C@H](CS)NC(=O)[C@H](CCCNC(=N)N)NC(=O)[C@H](Cc1c[nH]c2ccccc12)NC(=O)[C@H](CCC(=O)O)NC(=O)[C@H](CCSC)NC(=O)[C@@H]1CCCN1C(=O)[C@H](Cc1ccc(O)cc1)NC(=O)[C@H](CS)NC(=O)[C@H](Cc1cnc[nH]1)NC(=O)[C@@H]1CCCN1C(=O)[C@H](Cc1cnc[nH]1)NC(=O)[C@H](CC(N)=O)NC(=O)[C@H](CCCNC(=N)N)NC(=O)[C@H](CS)NC(=O)[C@H](CCCCN)NC(=O)[C@H](Cc1ccccc1)NC(=O)[C@H](Cc1ccc(O)cc1)NC(=O)[C@H](CO)NC(=O)[C@H](C)NC(=O)[C@@H]1CCCN1C(=O)[C@@H](N)CS)C(=O)N[C@@H](CC(=O)O)C(=O)NCC(=O)N[C@@H](CO)C(=O)N[C@@H](CC(=O)O)C(=O)N[C@@H](CCC(=O)O)C(=O)N[C@H](C(=O)N[C@@H](C)C(=O)N[C@@H](CS)C(=O)NCC(=O)NCC(=O)NCC(=O)NCC(=O)O)[C@H](C)O
